Drawing on patent publication US20160108039A1, “TRIAZOLOPYRIDINES AS THROMBIN INHIBITORS FOR THE TREATMENT OF THROMBOEMBOLIC DISEASES” (BAYER PHARMA AKTIENGESELLSCHAFT, priority 2013, published 2016), this text covers IC50 for 24 molecules.

The target in test [1] is T1, thrombin (Homo sapiens, UniProt P00734). In words: Measurement of the thrombin inhibition in buffer. The class given is biochemical. Particulars: human thrombin 0.06 nmol/l in Tris buffer pH 7.4, 22° C., substrate Boc-Asp(OBzl)-Pro-Arg-AMC; in some cases means of individual determinations. In short, it runs like this: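 Compound pre-incubated 15 min at 22° C with 0.06 nmol/l human thrombin in 50 mmol/l Tris, 100 mmol/l NaCl, 0.1% BSA, pH 7.4, then 5 μmol/l Boc-Asp(OBzl)-Pro-Arg-AMC added for 30 min. AMC fluorescence read at 360/460 nm against DMSO controls; IC50 from concentration–activity curves.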

The target in test [2] is T1, thrombin. Briefly: Thrombin-inhibitory activity in plasma samples (ecarin-activated). The class given is biochemical. Particulars: citrate plasma, ecarin activation, fluorogenic thrombin substrate; read at about 70% of maximum signal (about 12 min); in some cases means. A digest of the protocol:
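Citrate plasma prothrombin activated by ecarin (20 mU per reaction) in Ca2+-containing Hepes buffer with compound; unstimulated controls lacked ecarin. Thrombin activity followed with fluorogenic substrate (50 μmol/l final), ex 360/em 465 nm, read every minute over 20 minutes.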

A word on the IC50: it is the concentration that inhibits the measured activity by half. Read a high IC50 as weaker potency. Regarding `COc1cc(C(=O)N2CC(C)(CCO)OCC2CF)cn2nc(NCc3cccc(Cl)c3)nc12` (single isomer, unassigned) [Example 54, {2-[(3-Chlorobenzyl)amino]-8-methoxy[1,2,4]triazolo[1,5-a]pyridin-6-yl}[5-(fluoromethyl)-2-(2-hydroxyethyl)-2-methylmorpholin-4-yl]methanone], the half-inhibitory concentration (IC50) at thrombin [1] turned out to be 100 nM; on thrombin [2], 611 nM.
Take `COc1cc(C(=O)N2CC(C)(CCO)OCC2C(F)F)cn2nc(NCc3cccc(Cl)c3)nc12` (single isomer, unassigned) [Example 55, {[(3-Chlorobenzyl)amino]-8-methoxy[1,2,4]triazolo[1,5-a]pyridin-6-yl}[5-(difluoromethyl)-2-(2-hydroxyethyl)-2-methylmorpholin-4-yl]methanone]: the figures for the IC50 against thrombin [1] and at thrombin [2] were 9.6 nM and 65 nM, respectively.
For `COc1cc(C(=O)N2CC(C)(CC(C)O)OCC2CF)cn2nc(NCc3cccc(Cl)c3)nc12` (single isomer, unassigned) [Example 56, {[(3-Chlorobenzyl)amino]-8-methoxy[1,2,4]triazolo[1,5-a]pyridin-6-yl}[5-(fluoromethyl)-2-(2-hydroxypropyl)-2-methylmorpholin-4-yl]methanone] the same measures were 1.3 nM and 5.9 nM.
The corresponding values for `CCC1C(=O)N2CCC2CN1C(=O)c1cc(OC)c2nc(NCc3cccc(Cl)c3)nn2c1` (single isomer, unassigned) [Example 59, 4-({2-[(3-Chlorobenzyl)amino]-8-methoxy[1,2,4]triazolo[1,5-a]pyridin-6-yl}carbonyl)-3-ethyl-1,4-diazabicyclo[4.2.0]octan-2-one] are 8.3 nM and 11 nM.
The corresponding values for `COCC1C(=O)N2CCC2CN1C(=O)c1cc(OC)c2nc(NCc3cccc(Cl)c3)nn2c1` (single isomer, unassigned) [Example 60, 4-({2-[(3-Chlorobenzyl)amino]-8-methoxy[1,2,4]triazolo[1,5-a]pyridin-6-yl}carbonyl)-3-(methoxymethyl)-1,4-diazabicyclo[4.2.0]octan-2-one] are 26 nM and 23 nM.
Take `COc1cc(C(=O)N2CC3CCN3C(=O)C2C)cn2nc(NCc3cccc(Cl)c3)nc12` (single isomer, unassigned) [Example 61, 4-({2-[(3-Chlorobenzyl)amino]-8-methoxy[1,2,4]triazolo[1,5-a]pyridin-6-yl}carbonyl)-3-methyl-1,4-diazabicyclo[4.2.0]octan-2-one]: the IC50 was 23 nM against thrombin [1] and 17 nM at thrombin [2].
For `COc1cc(C(=O)N2CC3(CC3)NC(=O)C2C)cn2nc(NCc3cccc(Cl)c3)nc12` (single isomer, unassigned) [Example 62, 7-({2-[(3-Chlorobenzyl)amino]-8-methoxy[1,2,4]triazolo[1,5-a]pyridin-6-yl}carbonyl)-6-methyl-4,7-diazaspiro[2.5]octan-5-one] the same measures were 17 nM and 39 nM.
The corresponding values for `CCC1C(=O)NC(C)CN1C(=O)c1cc(OC)c2nc(NCc3cccc(Cl)c3)nn2c1` (single isomer, unassigned) [Example 63, 4-({2-[(3-Chlorobenzyl)amino]-8-methoxy[1,2,4]triazolo[1,5-a]pyridin-6-yl}carbonyl)-3-ethyl-6-methylpiperazin-2-one] are 9.8 nM and 24 nM.
For `COc1cc(C(=O)N2CC(C)(C)OCC2C(C)(C)O)cn2nc(NCc3cccc(Cl)c3)nc12` (single isomer, unassigned) [Example 66, {2-[(3-Chlorobenzyl)amino]-8-methoxy[1,2,4]triazolo[1,5-a]pyridin-6-yl}[5-(2-hydroxypropan-2-yl)-2,2-dimethylmorpholin-4-yl]methanone] the same measures were 25 nM and 24 nM.
`COc1cc(C(=O)N2CC(C)(C)OCC2C2(O)CC2)cn2nc(NCc3cccc(Cl)c3)nc12` (single isomer, unassigned) [Example 67, {2-[(3-Chlorobenzyl)amino]-8-methoxy[1,2,4]triazolo[1,5-a]pyridin-6-yl}[5-(1-hydroxycyclopropyl)-2,2-dimethylmorpholin-4-yl]methanone]: the IC50 on thrombin [1] worked out at 48 nM; at thrombin [2], 90 nM.
For `COc1cc(C(=O)N2CC(C)(C)OCC2C(C)O)cn2nc(NCc3cccc(Cl)c3)nc12` (single isomer, unassigned) [Example 68, {2-[(3-Chlorobenzyl)amino]-8-methoxy[1,2,4]triazolo[1,5-a]pyridin-6-yl}[5-(1-hydroxyethyl)-2,2-dimethylmorpholin-4-yl]methanone] the same measures were 49 nM and 106 nM.
The corresponding values for `CC[C@@H]1COC(C)(CCO)CN1C(=O)c1cc(OC)c2nc(NCc3cccc(Cl)c3)nn2c1` (single isomer, unassigned) [Example 70] are 6.1 nM and 35 nM.
For `COCC1COC(C)(CCO)CN1C(=O)c1cc(OC)c2nc(NCc3cccc(Cl)c3)nn2c1` (single isomer, unassigned) [Example 72, {2-[(3-Chlorobenzyl)amino]-8-methoxy[1,2,4]triazolo[1,5-a]pyridin-6-yl}[2-(2-hydroxyethyl)-5-(methoxymethyl)-2-methylmorpholin-4-yl]methanone] the same measures were 13 nM and 34 nM.
On to `[2H]C([2H])(C)O[C@@H]1CC(CO)N(C(=O)c2cc(OC)c3nc(NCc4cccc(Cl)c4)nn3c2)C1` (single isomer, unassigned) [Example 74], for which the IC50 against thrombin [1] and on thrombin [2] was 19 nM throughout.
Take `COc1cc(C(=O)N2C[C@H](OCC(F)F)CC2CO)cn2nc(NCc3cccc(Cl)c3)nc12` (single isomer, unassigned) [Example 75]: the IC50 at thrombin [1] came out at 23 nM; at thrombin [2], 74 nM.
The corresponding values for `COc1cc(C(=O)N2CC3CCN3C(=O)C2C)cn2nc(NC(CF)c3cccc(Cl)c3)nc12` (single isomer, unassigned) [Example 77, 4-[(2-{[1-(3-Chlorophenyl)-2-fluoroethyl]amino}-8-methoxy[1,2,4]triazolo[1,5-a]pyridin-6-yl)carbonyl]-3-methyl-1,4-diazabicyclo[4.2.0]octan-2-one] are 6.4 nM and 5.9 nM.
For `COc1cc(C(=O)N2CC(C)OCC2C2CC(O)C2)cn2nc(NCc3cccc(Cl)c3)nc12` (stereo not drawn) [Example 2, {2-[(3-Chlorobenzyl)amino]-8-methoxy[1,2,4]triazolo[1,5-a]pyridin-6-yl}[5-(3-hydroxycyclobutyl)-2-methylmorpholin-4-yl]methanone] the same measures were 19 nM and 20 nM.
The corresponding values for `COc1cc(C(=O)N2CC(C)(C)OC[C@H]2CCO)cn2nc(NCc3cccc(Cl)c3)nc12` [Example 7, {2-[(3-Chlorobenzyl)amino]-8-methoxy[1,2,4]triazolo[1,5-a]pyridin-6-yl}[(5R)-5-(2-hydroxyethyl)-2,2-dimethylmorpholin-4-yl]methanone] are 20 nM and 24 nM.
Turning to `COc1cc(C(=O)N2CC(C)(C)OCC2CC(C)O)cn2nc(NCc3cccc(Cl)c3)nc12` (stereo not drawn) [Example 45, {2-[(3-Chlorobenzyl)amino]-8-methoxy[1,2,4]triazolo[1,5-a]pyridin-6-yl}[5-(2-hydroxypropyl)-2,2-dimethylmorpholin-4-yl]methanone], the IC50 came to 33 nM against thrombin [1] and 34 nM against thrombin [2].
The corresponding values for `COc1cc(C(=O)N2CC(C)(CCO)OCC2CF)cn2nc(NCc3cccc(Cl)c3)nc12` (stereo not drawn) [Example 50, {2-[(3-Chlorobenzyl)amino]-8-methoxy[1,2,4]triazolo[1,5-a]pyridin-6-yl}[5-(fluoromethyl)-2-(2-hydroxyethyl)-2-methylmorpholin-4-yl]methanone] are 18 nM and 122 nM.
The corresponding values for `CCC1C(=O)N2CCC2CN1C(=O)c1cc(OC)c2nc(NCc3cccc(Cl)c3)nn2c1` (stereo not drawn) [Example 58, 4-({2-[(3-Chlorobenzyl)amino]-8-methoxy[1,2,4]triazolo[1,5-a]pyridin-6-yl}carbonyl)-3-ethyl-1,4-diazabicyclo[4.2.0]octan-2-one] are 36 nM and 39 nM.
The corresponding values for `COc1cc(C(=O)N2CC(C)CCC2CCO)cn2nc(NCc3cccc(Cl)c3)nc12` (stereo not drawn) [Example 64, {2-[(3-Chlorobenzyl)amino]-8-methoxy[1,2,4]triazolo[1,5-a]pyridin-6-yl}[2-(2-hydroxyethyl)-5-methylpiperidin-1-yl]methanone] are 25 nM and 63 nM.
`COc1cc(C(=O)N2CC(C)CCC2C(N)=O)cn2nc(NCc3cccc(Cl)c3)nc12` (stereo not drawn) [Example 65, 1-({2-[(3-Chlorobenzyl)amino]-8-methoxy[1,2,4]triazolo[1,5-a]pyridin-6-yl}carbonyl)-5-methylpiperidine-2-carboxamide]: the values for the half-maximal inhibitory concentration (IC50) on thrombin [1] and against thrombin [2] were 8.9 nM and 102 nM, respectively.
The corresponding values for `CC[C@@H]1COC(C)(CCO)CN1C(=O)c1cc(OC)c2nc(NCc3cccc(Cl)c3)nn2c1` (stereo partly drawn) [Example 69, {2-[(3-Chlorobenzyl)amino]-8-methoxy[1,2,4]triazolo[1,5-a]pyridin-6-yl}[(5R)-5-ethyl-2-(2-hydroxyethyl)-2-methylmorpholin-4-yl]methanone] are 25 nM and 39 nM.
